Measured values as given in ChEMBL document CHEMBL1201862, “PubChem BioAssay data set” (2004).
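Each compound was tested at five concentrations against cells in 96-well plates for 48 hours. Abbreviation: GI50, concentration required for 50% inhibition of growth.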 Activity calls are given as the source filed them. Cut-off read from the data, not from the text of the source: active = GI50 up to about 1.1 µM and inactive = higher.

Experiments:
Experiment in all cases: NCI anticancer screen, dose series, 48 h
[1] = tested on: 786-0
[2] = tested on: A549
[3] = tested on: ACHN
[4] = tested on: COLO 205
[5] = tested on: HOP-62
[6] = tested on: HOP-92
[7] = tested on: HT-29
[8] = tested on: Hs-578T
[9] = tested on: KM12
[10] = tested on: MDA-MB-231
[11] = tested on: MDA-MB-435
[12] = tested on: MDA-N
[13] = tested on: OVCAR-4
[14] = tested on: PC-3
[15] = tested on: SF-268
[16] = tested on: SK-MEL-5
[17] = tested on: SW-620
[18] = tested on: T47D
[19] = tested on: TK-10

Compound | GI50 [1] | GI50 [2] | GI50 [3] | GI50 [4] | GI50 [5] | GI50 [6] | GI50 [7] | GI50 [8] | GI50 [9] | GI50 [10] | GI50 [11] | GI50 [12] | GI50 [13] | GI50 [14] | GI50 [15] | GI50 [16] | GI50 [17] | GI50 [18] | GI50 [19]
Nc1c2ccccc2nc2ccc3c(=O)cc(-c4ccccc4)oc3c12 | 0.436 µM (active) | 1.4 µM (inactive) | 1.12 µM (active) | 0.234 µM (active) | 0.94 µM (active) | 1.24 µM (inactive) | 0.465 µM (active) | 1.9 µM (inactive) | 0.596 µM (active) | 1.14 µM (inactive) | 1.27 µM (inactive) | 0.815 µM (active) | 0.426 µM (active) | 1.26 µM (inactive) | 1.22 µM (inactive) | 1.52 µM (inactive) | 0.327 µM (active) | 1.17 µM (inactive) | 2.07 µM (inactive)
COc1cc2c(c(OC)c1O)-c1ccc(OC)c(=O)cc1[C@@H](NC(=O)C(F)(F)F)CC2 | 0.327 µM (active) | 0.472 µM (active) | 0.745 µM (active) | 0.0352 µM (active) | 0.192 µM (active) | 0.111 µM (active) | 0.0333 µM (active) | 0.019 µM (active) | 0.0482 µM (active) | 0.0413 µM (active) | 0.0206 µM (active) | 0.0262 µM (active) | > 26.1 µM (inactive) | 0.0706 µM (active) | 0.173 µM (active) | 0.0242 µM (active) | 0.0376 µM (active) | > 100 µM (inactive) | > 100 µM (inactive)
CCOC(=O)NC1CN2CCC1CC2 (stereo not drawn) | > 100 µM (inactive) | > 100 µM (inactive) | > 100 µM (inactive) | > 100 µM (inactive) | > 100 µM (inactive) | > 100 µM (inactive) | > 100 µM (inactive) | > 100 µM (inactive) | > 100 µM (inactive) | > 100 µM (inactive) | > 100 µM (inactive) | > 100 µM (inactive) | > 100 µM (inactive) | > 100 µM (inactive) | > 100 µM (inactive) | > 100 µM (inactive) | > 100 µM (inactive) | > 100 µM (inactive) | –
COC1CC(OC2C(C)OC(OC3C(C)OC(OC4C(C)OC(O[C@H]5CC[C@@]6(C)C(=CC[C@]7(O)[C@@H]6C[C@@H](O)[C@@]6(C)[C@]7(O)CC[C@@]6(O)C(C)=O)C5)CC4OC)CC3OC)CC2OC)OC(C)C1O (stereo partly drawn) | > 12.5 µM (inactive) | > 12.5 µM (inactive) | > 12.5 µM (inactive) | > 12.5 µM (inactive) | > 12.5 µM (inactive) | > 12.5 µM (inactive) | > 12.5 µM (inactive) | > 12.5 µM (inactive) | > 12.5 µM (inactive) | > 12.5 µM (inactive) | > 12.5 µM (inactive) | > 12.5 µM (inactive) | > 12.5 µM (inactive) | > 12.5 µM (inactive) | > 12.5 µM (inactive) | > 12.5 µM (inactive) | > 12.5 µM (inactive) | > 12.5 µM (inactive) | > 12.5 µM (inactive)
Cn1c(=O)c2c(nc3n(C)c(=O)c4ccccc4n23)n(C)c1=O | 29.6 µM (inactive) | 9.98 µM (inactive) | 17.1 µM (inactive) | > 93.5 µM (inactive) | 21 µM (inactive) | 43.6 µM (inactive) | 75.3 µM (inactive) | 59.3 µM (inactive) | 53.6 µM (inactive) | > 100 µM (inactive) | > 100 µM (inactive) | > 100 µM (inactive) | > 100 µM (inactive) | > 95.3 µM (inactive) | 68.5 µM (inactive) | 27.8 µM (inactive) | 42.2 µM (inactive) | > 71 µM (inactive) | > 100 µM (inactive)
CC1=NN(c2cccc(Cl)c2)C2(C1=C/C=C/c1ccccc1)C(Cl)C(=O)N2c1nc2ccccc2s1 (stereo not drawn) | 11.7 µM (inactive) | 43 µM (inactive) | 4.76 µM (inactive) | 62.7 µM (inactive) | 27.9 µM (inactive) | 19.5 µM (inactive) | 25.7 µM (inactive) | 21 µM (inactive) | 23.8 µM (inactive) | 22.3 µM (inactive) | 24.6 µM (inactive) | 26.8 µM (inactive) | 35.7 µM (inactive) | 19.3 µM (inactive) | 7.74 µM (inactive) | 22.9 µM (inactive) | 18.9 µM (inactive) | 15.8 µM (inactive) | 53 µM (inactive)
CCN1CCN(c2nc3ccccc3c3c2CCOc2ccccc2-3)CC1 | 22.3 µM (inactive) | 45.8 µM (inactive) | > 61.2 µM (inactive) | 17.4 µM (inactive) | 46.7 µM (inactive) | 28.8 µM (inactive) | > 31 µM (inactive) | 29.9 µM (inactive) | 24.9 µM (inactive) | 23.5 µM (inactive) | 24.9 µM (inactive) | 25.7 µM (inactive) | > 53.2 µM (inactive) | 32.7 µM (inactive) | 39.1 µM (inactive) | 15 µM (inactive) | 24.9 µM (inactive) | 35.5 µM (inactive) | 39.5 µM (inactive)
CCC#CCCCCCCCCC(F)C(=O)O (stereo not drawn) | > 100 µM (inactive) | > 100 µM (inactive) | > 100 µM (inactive) | > 100 µM (inactive) | > 100 µM (inactive) | > 100 µM (inactive) | > 100 µM (inactive) | > 100 µM (inactive) | > 100 µM (inactive) | > 100 µM (inactive) | > 100 µM (inactive) | > 100 µM (inactive) | > 100 µM (inactive) | > 100 µM (inactive) | > 100 µM (inactive) | > 100 µM (inactive) | > 100 µM (inactive) | > 100 µM (inactive) | > 100 µM (inactive)
C=CCN1C(=O)C[C@H](Cc2ccccc2)NC(=O)C[C@H](Cc2ccccc2)N(CC=C)C(=O)C[C@H](Cc2ccccc2)NC(=O)C[C@@H]1Cc1ccccc1 | 47.8 µM (inactive) | 4.83 µM (inactive) | – | 2.3 µM (inactive) | 51.8 µM (inactive) | 4.48 µM (inactive) | 5.19 µM (inactive) | > 100 µM (inactive) | 26 µM (inactive) | 8.79 µM (inactive) | 5.93 µM (inactive) | 8.91 µM (inactive) | 4.6 µM (inactive) | 3.1 µM (inactive) | 6.12 µM (inactive) | 20.7 µM (inactive) | 62.7 µM (inactive) | 6.3 µM (inactive) | 8.79 µM (inactive)
CC(C)NC(NC(C)C)=C(S(=O)(=O)C(F)(F)C(F)(F)C(F)(F)C(F)(F)F)S(=O)(=O)C(F)(F)C(F)(F)C(F)(F)C(F)(F)F | > 100 µM (inactive) | > 100 µM (inactive) | > 100 µM (inactive) | > 100 µM (inactive) | > 100 µM (inactive) | > 100 µM (inactive) | > 100 µM (inactive) | > 100 µM (inactive) | > 100 µM (inactive) | > 100 µM (inactive) | > 100 µM (inactive) | > 100 µM (inactive) | > 100 µM (inactive) | > 100 µM (inactive) | > 100 µM (inactive) | > 100 µM (inactive) | > 100 µM (inactive) | > 100 µM (inactive) | > 100 µM (inactive)
COc1cc(N(CCC#N)CCC#N)ccc1/C=N\NC(=O)c1ccc(C)cc1 | > 100 µM (inactive) | > 100 µM (inactive) | > 100 µM (inactive) | > 100 µM (inactive) | > 100 µM (inactive) | > 100 µM (inactive) | > 100 µM (inactive) | > 100 µM (inactive) | > 100 µM (inactive) | 18.2 µM (inactive) | > 100 µM (inactive) | > 100 µM (inactive) | > 100 µM (inactive) | 17.3 µM (inactive) | > 100 µM (inactive) | > 100 µM (inactive) | > 100 µM (inactive) | > 100 µM (inactive) | > 100 µM (inactive)
O=C(CNc1ccc(Cl)cc1Cl)Nn1c(-c2ccccc2)nc2ccccc2c1=O | 16.8 µM (inactive) | 30.5 µM (inactive) | 17.6 µM (inactive) | 11.1 µM (inactive) | > 10 µM (inactive) | 4.33 µM (inactive) | 16.1 µM (inactive) | 23.9 µM (inactive) | > 10 µM (inactive) | 14.8 µM (inactive) | 14.9 µM (inactive) | 15.9 µM (inactive) | 13.9 µM (inactive) | 14.9 µM (inactive) | 3.86 µM (inactive) | 5.94 µM (inactive) | 16.2 µM (inactive) | 14.6 µM (inactive) | 19.5 µM (inactive)
CCCCCc1cc(CCCC)sc1-c1ccco1 | > 100 µM (inactive) | 40 µM (inactive) | > 100 µM (inactive) | > 100 µM (inactive) | > 100 µM (inactive) | > 100 µM (inactive) | 45 µM (inactive) | > 100 µM (inactive) | > 86.9 µM (inactive) | > 100 µM (inactive) | 66.5 µM (inactive) | > 80.5 µM (inactive) | > 100 µM (inactive) | > 100 µM (inactive) | > 100 µM (inactive) | > 100 µM (inactive) | > 100 µM (inactive) | > 91.2 µM (inactive) | > 100 µM (inactive)
O=c1oc2c([N+](=O)[O-])cc([N+](=O)[O-])cc2c2ccccc12 | > 100 µM (inactive) | > 100 µM (inactive) | > 100 µM (inactive) | > 100 µM (inactive) | > 100 µM (inactive) | > 100 µM (inactive) | > 100 µM (inactive) | > 100 µM (inactive) | – | > 100 µM (inactive) | > 100 µM (inactive) | > 100 µM (inactive) | > 100 µM (inactive) | > 100 µM (inactive) | > 100 µM (inactive) | > 100 µM (inactive) | > 100 µM (inactive) | > 100 µM (inactive) | > 100 µM (inactive)
